Values joined by “and” are separate entries in the source; they are usually repeats but may differ in a detail not shown here. Equal entries are not always repeated. Toxic doses and inconclusive results are not listed. Rule as the data show it: active = T/C of 150% or more; inactive = T/C below 125%.
Test system: L1210 leukemia ip in BDF1 mice, survival T/C
Assay: NCI In Vivo Anticancer Drug Screen. Data for tumor model L1210 Leukemia (intraperitoneal) in B6D2F1 (BDF1) mice
Conditions: endpoint: mean survival time, higher = longer survival
Outline: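 Each compound was tested against a transplantable tumor grown in mice. The endpoint was survival, with treated animals benchmarked against vehicle controls as a simple ratio.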

[1] = dose: 50.0 mg/kg/injection, schedule: Q01DX009 (ip), vehicle: saline
[2] = dose: 100.0 mg/kg/injection, schedule: Q04DX003 (ip), vehicle: saline with Tween-80
[3] = dose: 200.0 mg/kg/injection, schedule: Q04DX003 (ip), vehicle: saline with Tween-80
[4] = dose: 100.0 mg/kg/injection, schedule: Q01DX009 (ip), vehicle: saline
[5] = dose: 200.0 mg/kg/injection, schedule: Q01DX009 (ip), vehicle: saline
[6] = dose: 400.0 mg/kg/injection, schedule: Q04DX003 (ip), vehicle: saline with Tween-80
[7] = dose: 100.0 mg/kg/injection, schedule: Q01DX001 (ip), vehicle: saline

Measured: T/C

O=[N+]([O-])/C=C/c1cccc2ccccc12
inactive: dose: 75.0 mg/kg/injection, schedule: Q01DX001 (ip), vehicle: saline 94 % of control | dose: 150.0 mg/kg/injection, schedule: Q01DX001 (ip), vehicle: saline 94 % of control | dose: 300.0 mg/kg/injection, schedule: Q01DX001 (ip), vehicle: saline 101 % of control

Nc1ccn(C2OC(CO)C(O)C2O)c(=NCC(=O)O)n1 (stereo not given)
inactive: dose: 100.0 mg/kg/injection, schedule: Q01DX005 (ip), vehicle: saline 120 % of control | dose: 200.0 mg/kg/injection, schedule: Q01DX005 (ip), vehicle: saline 122 % of control

O=N[O-].[Co].[N-]=C=S.[NH2-].[NH2-].[NH2-].[NH2-]
inactive: dose: 6.25 mg/kg/injection, schedule: Q01DX009 (ip), vehicle: saline 106 % of control | dose: 12.5 mg/kg/injection, schedule: Q01DX009 (ip), vehicle: saline 114 % of control | dose: 12.5 mg/kg/injection, schedule: Q04DX003 (ip), vehicle: saline with Tween-80 96 % of control | dose: 13.2 mg/kg/injection, schedule: Q01DX009 (ip), vehicle: saline 104 % of control | dose: 16.0 mg/kg/injection, schedule: Q01DX009 (ip), vehicle: saline 104 % of control | dose: 20.0 mg/kg/injection, schedule: Q01DX009 (ip), vehicle: saline 113 % of control | dose: 25.0 mg/kg/injection, schedule: Q01DX009 (ip), vehicle: saline 104 % of control | dose: 25.0 mg/kg/injection, schedule: Q04DX003 (ip), vehicle: saline with Tween-80 96 % of control | dose: 30.0 mg/kg/injection, schedule: Q01DX009 (ip), vehicle: saline 113 % of control | dose: 35.0 mg/kg/injection, schedule: Q01DX009 (ip), vehicle: saline 104 % of control | [1] 116 % of control | dose: 50.0 mg/kg/injection, schedule: Q04DX003 (ip), vehicle: saline with Tween-80 88 % of control | [2] 105 % of control | [3] 90 % of control

O=C1Nc2ccccc2C1=O
inactive: [1] 92 % of control | [4] 103 % of control | dose: 100.0 mg/kg/injection, schedule: Q04DX003 (ip), vehicle: saline 99 % of control | [5] 103 % of control | dose: 200.0 mg/kg/injection, schedule: Q04DX003 (ip), vehicle: saline 99 % of control | dose: 400.0 mg/kg/injection, schedule: Q01DX009 (ip), vehicle: saline 96 % of control | dose: 400.0 mg/kg/injection, schedule: Q04DX003 (ip), vehicle: saline 99 % of control

COC(=O)C(Cc1c[nH]c2ccccc12)NC(=O)C(NC(=O)OC(C)(C)C)C(C)C (stereo not given)
inactive: dose: 100.0 mg/kg/injection, schedule: Q01DX001 (ip), vehicle: carboxymethylcellulose (CMC) 100 % of control | dose: 200.0 mg/kg/injection, schedule: Q01DX001 (ip), vehicle: carboxymethylcellulose (CMC) 94 % of control | dose: 400.0 mg/kg/injection, schedule: Q01DX001 (ip), vehicle: carboxymethylcellulose (CMC) 92 % of control

CCOC(=O)CCc1c(C)[nH]c(C(=O)OCC)c1C
inactive: dose: 100.0 mg/kg/injection, schedule: Q01DX001 (ip), vehicle: Klucel (hydroxypropylcellulose) (HPC) 98 % of control | dose: 100.0 mg/kg/injection, schedule: Q04DX003 (ip), vehicle: Klucel (hydroxypropylcellulose) (HPC) 92 % of control | dose: 200.0 mg/kg/injection, schedule: Q01DX001 (ip), vehicle: Klucel (hydroxypropylcellulose) (HPC) 97 % of control | dose: 400.0 mg/kg/injection, schedule: Q01DX001 (ip), vehicle: Klucel (hydroxypropylcellulose) (HPC) 97 % of control | dose: 400.0 mg/kg/injection, schedule: Q04DX003 (ip), vehicle: Klucel (hydroxypropylcellulose) (HPC) 108 % of control

COc1cc(C(=O)NNC(=O)c2cccc(C)c2)cc(OC)c1OC
inactive: dose: 100.0 mg/kg/injection, schedule: Q01DX009 (ip), vehicle: Klucel (hydroxypropylcellulose) (HPC) 100 % of control | dose: 200.0 mg/kg/injection, schedule: Q01DX009 (ip), vehicle: Klucel (hydroxypropylcellulose) (HPC) 95 % of control | dose: 400.0 mg/kg/injection, schedule: Q01DX009 (ip), vehicle: Klucel (hydroxypropylcellulose) (HPC) 105 % of control

C/C=C\C1CC2CC(C1C)C2(C)C (stereo not given)
inactive: [1] 102 % of control | [4] 97 % of control | [5] 105 % of control

CCOC(=O)C1(C(=O)OCC)C(C)CC(=O)N1c1ccccc1OC (stereo not given)
inactive: dose: 100.0 mg/kg/injection, schedule: Q04DX002 (ip), vehicle: Klucel (hydroxypropylcellulose) (HPC) 106 % of control | dose: 200.0 mg/kg/injection, schedule: Q04DX002 (ip), vehicle: Klucel (hydroxypropylcellulose) (HPC) 103 % of control | dose: 400.0 mg/kg/injection, schedule: Q04DX002 (ip), vehicle: Klucel (hydroxypropylcellulose) (HPC) 97 % of control

CCC(C(=O)NNC(=O)c1cc(OC)c(OC)c(OC)c1)c1ccccc1 (stereo not given)
inactive: dose: 100.0 mg/kg/injection, schedule: Q01DX001 (ip), vehicle: saline with Tween-80 96 % of control | dose: 100.0 mg/kg/injection, schedule: Q04DX002 (ip), vehicle: saline with Tween-80 97 % of control and 101 % of control | [2] 100 % of control and 90 % of control | dose: 200.0 mg/kg/injection, schedule: Q01DX001 (ip), vehicle: saline with Tween-80 98 % of control | dose: 200.0 mg/kg/injection, schedule: Q04DX002 (ip), vehicle: saline with Tween-80 97 % of control and 98 % of control | [3] 93 % of control and 104 % of control | dose: 400.0 mg/kg/injection, schedule: Q01DX001 (ip), vehicle: saline with Tween-80 93 % of control | dose: 400.0 mg/kg/injection, schedule: Q04DX002 (ip), vehicle: saline with Tween-80 101 % of control and 90 % of control | [6] 92 % of control and 93 % of control

CCCCCC(C)O[Si](C)c1cccc2ccccc12 (stereo not given)
inactive: dose: 100.0 mg/kg/injection, schedule: Q01DX009 (ip), vehicle: saline with Tween-80 98 % of control | [2] 92 % of control | dose: 200.0 mg/kg/injection, schedule: Q01DX009 (ip), vehicle: saline with Tween-80 93 % of control | [3] 92 % of control | dose: 400.0 mg/kg/injection, schedule: Q01DX009 (ip), vehicle: saline with Tween-80 104 % of control | [6] 101 % of control

CN(C)c1ccc(C=NCCCNC2CCCCC2)cc1
inactive: dose: 25.0 mg/kg/injection, schedule: Q04DX003 (ip), vehicle: other 94 % of control | dose: 50.0 mg/kg/injection, schedule: Q04DX003 (ip), vehicle: other 102 % of control | [7] 88 % of control

OCC1C2CCC(O2)C1CO (stereo not given)
inactive: dose: 0.75 mg/kg/injection, schedule: Q04DX002 (ip), vehicle: saline 96 % of control | dose: 1.5 mg/kg/injection, schedule: Q04DX002 (ip), vehicle: saline 93 % of control and 110 % of control | dose: 3.0 mg/kg/injection, schedule: Q04DX002 (ip), vehicle: saline 96 % of control | dose: 6.0 mg/kg/injection, schedule: Q04DX002 (ip), vehicle: saline 101 % of control and 115 % of control | dose: 12.5 mg/kg/injection, schedule: Q04DX002 (ip), vehicle: saline 101 % of control | dose: 25.0 mg/kg/injection, schedule: Q04DX002 (ip), vehicle: saline 108 % of control | dose: 50.0 mg/kg/injection, schedule: Q04DX002 (ip), vehicle: saline 111 % of control | dose: 100.0 mg/kg/injection, schedule: Q04DX002 (ip), vehicle: saline 105 % of control

CC(=O)Nc1cc(C)cc(NC(C)=O)c1C
inactive: dose: 75.0 mg/kg/injection, schedule: Q01DX001 (ip), vehicle: carboxymethylcellulose (CMC) 94 % of control | dose: 300.0 mg/kg/injection, schedule: Q01DX001 (ip), vehicle: carboxymethylcellulose (CMC) 90 % of control

NC(C(=O)O)c1cccc(F)c1 (stereo not given)
inactive: dose: 50.0 mg/kg/injection, schedule: Q01DX001 (ip), vehicle: saline 98 % of control | [7] 101 % of control | dose: 200.0 mg/kg/injection, schedule: Q01DX001 (ip), vehicle: saline 101 % of control | dose: 400.0 mg/kg/injection, schedule: Q01DX001 (ip), vehicle: saline 95 % of control
